# Reference: US20100286139A1, “AMINO PYRAZOLE COMPOUND” (ELI LILLY AND COMPANY, priority 2008, published 2010)
# Molecular target: T1, JAK2V617F (Homo sapiens, UniProt O60674, V617F)
# T1 construct: expressed in transfected cells; host or cells: Ba/F3 (murine pro-B) cells
# Assay: Ba/F3 JAK2V617F cell-based assay (Cellomics ArrayScan HCS)
# Design: species or system murine
# Conditions: Ba/F3 cells expressing JAK2V617F, 60 min compound incubation; read-out: relative IC50, inhibition of pSTAT5
# Excerpt: JAK2 target inhibition has been evaluated in Ba/F3 expressing JAK2 V617F by Western blot as reported in Wernig et al. (Wernig G, et al. Efficacy of TG101348, a selective JAK2 inhibitor, in treatment of a murine model of JAK2V617F-induced polycythemia vera, Cancer Cell, April; 13(4):311-20). A medium throughput Cellomics assay was established to evaluate the JAK2 target inhibition in Ba/F3 cells expressing JAK2V617F. This assay enables the discovery of an effective therapeutic agent to treat disorders associated with JAK2V617F mutation.
# Ba/F3 (murine pro-B) cells expressing JAK2V617F maintained in RPMI 1640 with 10% FBS, 0.07% sodium bicarbonate, 1 mM sodium pyruvate, 1× antibiotic/antimycotic (Invitrogen, Carlsbad, Calif.) and 0.45% glucose (Sigma, St Louis, Mo.). Cells are kept at 37° C. with 5% CO2. The test compound is prepared in 100% DMSO at 10 mM concentration. […]
# After cell treatment, 500 μL of 1% formaldehyde solution (made freshly with phosphate-buffered saline (PBS) and kept warm at 37° C.) is added to each well. […] An aliquot of 200 μL of 1 to 10 dilution of Mouse anti-pSTAT5 (pY694) Alexa Fluor 647® in fluorescence activated cell sorting (FACS) buffer is added to the cells. […] Mean fluorescent intensity data are collected and analyzed using Cellomics Arrayscan® VTi. […] The relative IC50 is calculated using a 4 parameter logistic curve fitting analysis with ActivityBase 4.0. […]
# T1 sequence (O60674 whole entry V617F): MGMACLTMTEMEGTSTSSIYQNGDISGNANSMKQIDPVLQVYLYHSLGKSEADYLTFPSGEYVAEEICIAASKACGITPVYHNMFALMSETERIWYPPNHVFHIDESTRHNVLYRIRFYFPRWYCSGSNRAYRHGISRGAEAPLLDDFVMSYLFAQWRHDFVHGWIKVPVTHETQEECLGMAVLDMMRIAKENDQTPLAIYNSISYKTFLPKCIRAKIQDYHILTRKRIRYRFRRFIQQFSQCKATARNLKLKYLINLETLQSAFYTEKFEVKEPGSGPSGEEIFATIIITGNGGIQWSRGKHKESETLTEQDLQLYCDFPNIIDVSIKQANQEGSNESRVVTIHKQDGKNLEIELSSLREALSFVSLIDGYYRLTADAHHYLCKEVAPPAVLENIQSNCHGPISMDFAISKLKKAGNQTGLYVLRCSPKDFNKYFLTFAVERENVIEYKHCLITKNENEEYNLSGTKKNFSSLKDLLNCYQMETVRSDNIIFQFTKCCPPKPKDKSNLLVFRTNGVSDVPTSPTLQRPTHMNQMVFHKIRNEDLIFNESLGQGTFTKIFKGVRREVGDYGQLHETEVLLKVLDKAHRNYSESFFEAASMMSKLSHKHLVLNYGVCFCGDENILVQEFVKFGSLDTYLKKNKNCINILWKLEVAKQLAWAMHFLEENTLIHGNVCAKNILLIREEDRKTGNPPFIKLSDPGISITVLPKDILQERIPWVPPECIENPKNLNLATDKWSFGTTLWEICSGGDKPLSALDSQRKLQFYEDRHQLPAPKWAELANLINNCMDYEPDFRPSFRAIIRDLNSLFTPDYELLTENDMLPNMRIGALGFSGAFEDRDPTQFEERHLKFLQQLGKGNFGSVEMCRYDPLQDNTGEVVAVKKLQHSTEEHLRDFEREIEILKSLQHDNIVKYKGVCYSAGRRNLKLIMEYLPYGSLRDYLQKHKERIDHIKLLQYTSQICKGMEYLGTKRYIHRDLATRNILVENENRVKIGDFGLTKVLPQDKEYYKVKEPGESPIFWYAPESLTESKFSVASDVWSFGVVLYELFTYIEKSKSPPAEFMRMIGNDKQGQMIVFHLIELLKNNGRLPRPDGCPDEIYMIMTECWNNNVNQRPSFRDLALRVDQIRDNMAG
compound,measurement,value
"Cc1cc(Nc2cc(CN3CCOCC3)c3nc(C)c(Cc4ccc(Cl)cc4F)n3n2)n[nH]1 [3-(4-Chloro-2-fluorobenzyl)-2-methyl-N-(5-methyl-1H-pyrazol-3-yl)-8-(morpholinomethyl)imidazo[1,2-b]pyridazin-6-amine]",IC50,30 nM
